Results published in patent US20250152559A1, “METHODS FOR TREATING MYC-AMPLIFIED CANCER” (The Governing Council of the University of Toronto, priority 2023, published 2025).
pIC50: −log10 of the molar value.

Tests used:
Assay in all cases: PrestoBlue cell viability, 72-hour treatment, limiting dilution
SU_MB002 = format: cell-based, human; details: for potency on tumor cell viability: SU_MB002 tumor cells
Procedure: (§1) SU_MB002, NSC194, NSC197 and NSC201FT, MBT375 and MED411FHTC were maintained in Neurocult Complete (NCC) media (Stem Cell Technologies; catalogue #05751). D425 and D458 were maintained in Dulbecco's […] (DMEM) containing 10% fetal bovine serum (FBS). HD-MB03 were maintained in NCC containing 10% FBS. All cell lines were conditioned in NCC for a minimum of 48 hours before experimentation. SU_MB002 and HD-MB03 G3MB-MYC PDOX were obtained from collaborators as kind gifts and are frequently passaged in vivo. SU_MB002, a treatment-refractory group 3 MB acquired at autopsy was received from Dr. Yoon-Jae Cho. Dr. Till Milde provided HD-MB03, a treatment-naïve group 3 MBs. ICB1299 group 4 MB cells were obtained as a gift from Silvia Marino's laboratory^62. MBT375 was established in-house from a surgical specimen of group 4 MB, which was engrafted in the cerebellum of mice for serial propagation. Nanostring genotyping was used to confirm group 4 medulloblastoma identity. MED411FHTC PDOX were procured from Dr. Olson's brain tumor research lab. D425 and D458 were obtained from the ATCC. All cell lines were fingerprint verified by short tandem repeat (STR) profiling. NSC194, NSC197 and NSC201FT were derived in-house from donor fetal brain tissues^63.
(§2) For assessment of viability, cells were seeded into 96-well plates at a density of 1,000 cells per well. Viability was measured by adding PrestoBlue™ diluted 1:10 (ThermoFisher Scientific; Catalogue #A13261) followed by a 4-hour incubation. Relative fluorescence intensity was determined via background correction. To assess tumorsphere forming capacity, cells were seeded at a low density (200 cells per well) and incubated for 3-5 days. Tumorspheres were manually counted thereafter.

MED411-FHTC = format: cell-based; details: Homo sapiens, G3MB-MYC, read-out: Brequinar IC50
Procedure: as §1, §2

HD-MB03 = format: cell-based; details: Homo sapiens; HD-MB03, G3MB-MYC; read-out: Brequinar IC50
Procedure: as §1, §2

D425 = format: cell-based; details: Homo sapiens; D425, G3MB-MYC; read-out: Brequinar IC50
Procedure: as §1, §2

D458 = format: cell-based; details: Homo sapiens; D458, G3MB-MYC; read-out: Brequinar IC50
Procedure: as §1, §2

Cc1c(-c2ccc(-c3ccccc3F)cc2)nc2ccc(F)cc2c1C(=O)O [Brequinar]
pIC50 (SU_MB002; Homo sapiens, SU_MB002, G3MB-MYC, read-out: Brequinar IC50): 6.52 | tumor cell proliferation and viability with uridine supplementation (SU_MB002; SU_MB002, media with uridine hydrochloride (100 μM)): rescues | potency on tumor cell viability (SU_MB002): nanomolar range | pIC50 (MED411-FHTC): 6.86 | pIC50 (HD-MB03): 7.26 | pIC50 (D425): 6.91 | pIC50 (D458): 6.96

COc1ccc([C@H]2c3[nH]c4ccc(Cl)cc4c3CCN2C(=O)Oc2ccc(Cl)cc2)cc1 [PTC299]
potency on tumor cell viability (SU_MB002): nanomolar range
